Experimental data as given in patent US20030114434A1, “EXTENDED DURATION LIGHT ACTIVATED CANCER THERAPY” (priority 1999, published 2003).
Several values for one entry are separate records, joined by “and”; a condition that tells them apart may be missing. Equal entries are not always repeated.

Columns and labels:
[1] = tested on: colon carcinoma tumor mass; test: Extended duration PDT of a colon carcinoma tumor mass in a patient, implanted LED probes; type: in vivo, human
Text: A patient in the terminal phase of recurrent malignant colon cancer having undergone chemotherapy and irradiation therapy, presented with a protruding colon carcinoma tumor mass of approximately 500 grams and approximately 13 cm in diameter, which extended through the patient's dermis. Due to the advanced state of the patient's disease and due to the highly vascularized nature of this tumor mass, resection was not feasible. Further, this large tumor mass presented a significant amount of pain and discomfort to the patient, as well as greatly impairing the patient's ability to lie flat.
Six separate light source probes, each including a linear array of LEDs, were surgically implanted in this large human tumor using standard surgical procedures. A single dose of a photosensitizer agent (aminolevulinic acid (ALA) at 60 mg/kg) was provided by oral administration to the patient. Following a period of five hours to permit sufficient clearance of the photosensitizing agent from healthy tissues, light irradiation was administered. An intensity of about 25-30 mW of light from each light source probe (650 nm peak wavelength) was delivered to the tumor for 40 hours. […] The total fluence delivered to the tumor bed during this single extended duration treatment was in excess of 20,000 Joules.
The fluence rate employed in this Example represented about 150-180 mW/cm^2, with a total fluence more than 20,000 Joules.

[2] = systemic clinical use; cited from earlier work
[3] = cited from earlier work
[4] = tested on: transplanted human tumors; test: Nude mice with established transplanted human tumors, photosensitizer injected, low fluence light 72 hours; type: in vivo; conditions: for tumor necrosis: 660 nm light 72 hours, 30 microwatts per cm^2, after 7 days, two mice
Method: (§1) A series of experiments were performed using nude mice growing transplanted human tumors. The mice are injected with various photosensitizers and the tumors illuminated with low fluence of only 30 uW of light over a 72 hour time period. Extended tumor necrosis was observed.
(§2) All control nude mice were injected with the PDT drug (intratumor or intraperitoneal) and 5 million human carcinoma cells which developed a tumor mass. These mice were kept in a darkened environment.
(§3) Another two mice with established tumors were injected with 50-100 micrograms of Pheophorbide A into the lesion and exposed to 660 nm light (30 microwatts per cm^2) for 72 hours.
(§4) Two experimental mice were injected with epithelial cancer cells preincubated with 20 micrograms of Chlorin e6. […] Another two mice were injected with 100-150 micrograms of Chlorin e6 intratumorally and then exposed to 660 nm light (30 microwatts per cm^2) for 72 hours.
Five experimental mice bearing established tumors were injected with 1 mg Hpd intraperitoneally followed by exposure to 630 nm (peak) light (30 microwatts per cm^2) for 72 hours. […] There was no effect observed on control animals maintained in the absence of light (dark control mice).

[5] = tested on: epithelial cancer cells; test: Nude mice injected with epithelial cancer cells preincubated with photosensitizer, low fluence light; type: in vivo; conditions: for tumor growth: 660 nm light 48 hours, two mice
Method: as §1, §2, §3, §4

Compound: NCC(=O)CCC(=O)O [ALA, aminolevulinic acid]
- collateral damage to surrounding normal tissue ([1]; ALA 60 mg/kg oral, after 40 hours of PDT): no collateral damage
- radius of extensive tumor necrosis from each light source probe ([1]; ALA 60 mg/kg oral, light from 5 hours after dose, 650 nm, 40 hours of PDT, total fluence >20,000 Joules): greater than 5 cm
- reduction of tumor tissue (necrotic tissue debrided) ([1]; over four weeks following PDT): approximately 500 grams

Compound: sodium porfimer [PHOTOFRIN]
- duration of dermal photosensitivity [2]: up to six weeks

Compound: CC(=O)[O-].CC(=O)[O-].CCc1c(CC)c2cc3nc(cnc4cc(OCCOCCOCCOC)c(OCCOCCOCCOC)cc4ncc4nc(cc1[n-]2)C(CCCO)=C4C)C(C)=C3CCCO.O.[Lu+3] [Lutrin, lutetium texaphyrin]
- time for clearance from normal tissues (predominant amount) ([3]; from administration): about 24 hours
- time tumor tissue retains the agent ([3]; from time of administration): 48 to 96 h and 24 to 96 h
- time at which a larger proportion clears from normal tissue ([3]; in vivo): about 8 hours
- time at which a proportion begins to clear from normal tissue ([3]; in vivo): about 3 hours
- time at which an even greater proportion clears from normal tissue ([3]; in vivo): about 16 hours

Compound: Oc1cccc(-c2c3nc(c(-c4cccc(O)c4)c4ccc([nH]4)c(-c4cccc(O)c4)c4nc(c(-c5cccc(O)c5)c5ccc2[nH]5)CC4)C=C3)c1 [FOSCAN]
- duration of dermal photosensitivity [2]: at least several weeks

Compound: Pheophorbide A
- tumor necrosis ([4]; 50-100 micrograms into the lesion): Extensive tumor necrosis
- effect on tumor, dark control ([4]; Pheophorbide A experiment, absence of light): no effect
- tumor growth, dark control ([5]; Pheophorbide A experiment, maintained in the absence of light): developed a large tumor
- tumor growth ([5]; cells preincubated with 10 micrograms, 30 microwatts per cm2, after 1.5 months): no tumor growth

Compound: CCOC(=O)C1=Cc2c3nc(cc4nc(cc5[n-]c(cc6[n-]c2c(C)c6CC)c(C)c5CC)C(C)=C4CC)[C@@H](C)[C@]13CC.[Cl-].[Cl-].[Sn] (racemic) [PURLYTIN]
- duration of dermal photosensitivity [2]: at least several weeks

Compound: C=Cc1c(C)c2cc3nc(c(CC(=O)O)c4[nH]c(cc5nc(cc1[nH]2)C(C)=C5CC)c(C)c4C(=O)O)[C@@H](CCC(=O)O)[C@@H]3C [Chlorin e6]
- tumor necrosis ([4]; 100-150 micrograms intratumorally): Extensive tumor necrosis
- tumor growth, dark control ([5]; Chlorin e6 experiment, absence of light): developed a large tumor
- tumor growth ([5]; cells preincubated with 20 micrograms, 30 microwatts per cm^2, after 1.5 months): no tumor growth
